Experimental data from patent US20150017665A1, “Peptides and Methods for Detecting MPO-ANCA” (The University of North Carolina at Chapel Hill, priority 2012, published 2015).

What was measured:
MPO-ANCA [1] = assay: Epitope excision MALDI-TOF/TOF MS of patient and healthy Ig with native MPO; assay type: binding; set-up: key: HC: Healthy control; Active disease; Remission; details: human Ig
From the text: Total immunoglobulin (IgG) was purified from sera using protein A/G PLUS-Agarose Reagent according to commercial protocol (Santa Cruz Biotechnology). Purified IgG was immobilized on CNBr-activated Sepharose 4B (GE Healthcare) in compact reaction columns (CRC, USB Corporation) and exposed to native MPO protein (MPO, Elastin Products Co, Inc) followed by digestion with sequencing grade TPCK-treated trypsin (Worthington). MPO-peptides remaining bound to IgG after digestion were eluted with 0.1% trifluoro acetic acid and analyzed on a 4800 Plus Matrix-Assisted Laser Desorption Ionization Time of Flight Mass Spectrometry (MALDI TOF/TOF MS/MS) in conjunction with ProteinPilot software (AB SCIEX).
To identify epitopes of low titer autoantibodies, ^18O labeling (Mirza et al., J. Proteome Res. 7:3042 (2008)) was used to differentiate between the signal and the noise in the MS and MSMS spectra using the 4 Da shifts between the corresponding spectra of labeled and non-labeled peptides. Mass spectrometry analysis for epitopes recognized by MPO autoantibodies from healthy individuals, and for detection of low ANCA titers in remission samples required the use of isotope H2^18O to increase sensitivity (Cambridge Isotope Laboratories). Samples from healthy individuals (n=10) and MPO-ANCA patients in clinical remission (n=35) were processed in the presence of H2^18O. Incorporation of H2^18O on the carboxyl terminus of each proteolytic fragment of MPO during tryptic digestion, trypsin buffer was made with the isotope H2^18O as a diluent.
MPO-ANCA positive patients (n=45) from the University of North Carolina cohort (UNC) were analyzed in the initial studies. Demographics of the cohort (Table 2) indicate a predominantly Caucasian group. Approximately 40% are diagnosed with microscopic polyangiitis (MPA), 40% with renal-limited disease and 20% are diagnosed with granulomatosis with polyangiitis (GPA). To compare epitope specificities related to disease activity, longitudinal samples were analyzed to include active disease (n=52) and remission (n=35) from the UNC cohort (Tables 3 and 4). Ten healthy subjects were included in the analyses. Purified immunoglobulin (Ig) from sera samples was subjected to analysis by epitope excision MALDI-TOF/TOF mass spectrometry (depicted in FIG. 3A) to identify epitope profiles of autoantibodies reactive with MPO. In order to epitope map low titer anti-MPO antibodies from healthy subjects and from patients in disease remission, an approach was designed using the ^16O-to-^18O exchange technique, an adaptation of a proteomics-based quantification method (Mirza et al., J. Proteome Res. 7:3042 (2008)). Incorporation of H2^18O on the carboxyl termini of proteolytic fragments produces a 4 Da mass shift in the MS spectra, decipherable from background noise. MPO epitopes unique to Ig from patients with active disease were designated ‘exclusive to active disease’; epitopes identified in remission samples were designated ‘persistent during remission’; and those present in samples from healthy subjects were designated asymptomatic or ‘natural’.

[2] = test system: anti-MPO antibodies of immunized DR2 Tg mice; assay: Epitope excision MS of IgG from immunized DR2 Tg mice with recombinant mouse MPO; assay type: binding; details: DR2 Tg mice immunized with MPO aa442-460
Experimental: Mass spectrometry analysis of ANCA-negative IgG and mouse IgG samples were conducted as above. With the exception of protein substrate, immobilized ANCA-negative IgG were exposed to whole leukocyte lysate preparation from a healthy donor and mouse IgG to recombinant mouse MPO (R&D Systems).
As HLA-MHC II help shape the B and T cell repertoires, and consequently the response to foreign and self-antigens, we wanted to define the epitope specificity of the anti-MPO autoantibodies that could be induced experimentally using DR2 Tg mice. In this way, we could assess development of the anti-MPO antibody response after immunization of a single epitope in the context of a human MHC II. IgG from sera of immunized mice was profiled for anti-MPO epitope specificity using epitope excision MS. DR2 Tg mice developed antibodies targeting the human B cell epitope aa447-459 which is within a conserved region of both murine and human MPO. Unpredictably, immunized DR2 Tg mice initiated a polyclonal response producing autoantibodies against the entire MPO molecule. The epitope profile was astonishingly similar to that of the MPO-ANCA human profile (Table 6), indicative of the critical nature of this epitope.

DR2 Tg mice = assay: Actively induced anti-MPO associated glomerulonephritis (peptide immunization); assay type: in vivo, mouse
Experimental: DR2 Tg mice (Ooi et al., Proc. Natl. Acad. Sci. USA 109:E2615 (2012); Rich et al., Eur. J. Immunol. 34:1251 (2004)) were immunized s.c. with 3×100 μg of peptide antigen (OVA323-339, n=4 or MPO442-460, n=10) first in FCA then FIA on days 0, 7 and 14. Mice were culled on day 28.
For indirect immunofluorescence, ethanol fixed thioglycolate induced peritoneal neutrophils were cytospun onto slides, purified serum IgG (1 mg/ml) was applied for 20 minutes then anti-mouse IgG Ab was detected using FITC conjugated anti-mouse IgG Ab (Silenus) (Ooi et al., Proc. Natl. Acad. Sci. USA 109:E2615 (2012); Lock, J. Clin. Pathol. 47:4 (1994)). Albuminuria was assessed by ELISA (Bethyl Laboratories) and haematuria assessed by urine test strips (Combur) from a 24 hour urine sample. Blood urea nitrogen (BUN) was measured using standard laboratory methods on serum collected at the end of experiment. Glomerular abnormalities assessed, on […], PAS stained, formalin fixed, paraffin embedded sections (≧50 glomeruli/mouse), were thickening of the capillary walls and mesangial hypercellularity (Ooi et al., J. Am. Soc. Nephrol. 20:980 (2009)). Total glomerular cell nuclei were enumerated (≧20 glomeruli/mouse). Glomerular neutrophils were detected by immunoperoxidase staining of 6 μm thick, periodate lysine paraformaldehyde fixed, frozen kidney sections using anti-Gr-1 antibodies (RB6-8C5).

MPO-ANCA [3] = assay: Peptide ELISA with total IgG (Chapel Hill and Groningen); assay type: binding, human
Experimental: A total of 195 IgG samples were tested by native MPO or peptide ELISA. Samples included those from healthy controls (n=59), active disease (n=80) and remission patients (n=56). Total IgG was added to wells (2 μg/well) precoated with 1-2 μg peptide (UNC-CH peptide synthesis core). Goat anti-human with alkaline phosphatase conjugate secondary antibody specific to IgG (H+L) (Millipore, Billerica, Mass.) (1:10,000) was added and detected using 1-Step PNPP substrate (Thermo Scientific) and read at λ=405 nm after 30 min. Identical peptides were used in ELISAs at both locations; all other substrates used to test NL cohort samples by ELISAs were prepared in Groningen. Total IgG (1:500˜2 mg/well) was added to precoated wells blocked with 1% BSA. Secondary antibody, goat anti-human conjugated with alkaline phosphatase (A5403; Sigma-Aldrich) (1:5000), was added and detected using p-nitrophenyl-phosphate disodium substrate.

[4] = compared with OVA aa323-339 immunized mice

Substance | Found in samples: Healthy control, Active disease, or Remission, (HC, A, R) (MPO-ANCA [1]; Table 1) | Found in samples: Healthy control, Active disease, or Remission, (HC, A, R) (MPO-ANCA [1]; Table 6) | Epitopes found in immunized mice [2] | other results
DHGLPGYNAWR (listed as Homo sapiens) [aa593-603] | A, R, HC | A, R, HC | DHGLPGYNAWR | 
FCGLPQPETVGQLGT (listed as Homo sapiens) [aa605-622] | A | A |  | 
FPTDQLTPDQER (listed as Homo sapiens) [aa237-248] | A, R, HC | A, R, HC |  | 
FQDNGR (listed as Homo sapiens) [aa369-374] | A | A |  | 
FWWENEGVFSMQQR (listed as Homo sapiens) [aa678-691] | A, R, HC | A, R, HC |  | 
IANVFTNAFR (listed as Homo sapiens) [aa490-499] | A | A | IANVFTNAFR | 
IGLDLPALNMQR (listed as Homo sapiens) [aa579-590] | A, R, HC | A, R, HC | IGLDLPALNMQR | 
IPCFLAGDTR (listed as Homo sapiens) [aa396-405] | R | R | IPCFLAGDMR | 
KYLPTYR (listed as Homo sapiens) [aa474-480] | A ,R | A, R |  | 
LFEQVMR (listed as Homo sapiens) [aa572-578] | A, R, HC | A, R, HC | LFEQVMR | 
LYQEAR (listed as Homo sapiens) [aa442-447] | A | A |  | 
LYQEARKIVGAMVQIITYR (LYQEARKIVGAMVQITTYR; listed as Homo sapiens) [aa442-460] |  |  |  | induction of MPO-reactive antibodies (DR2 Tg mice; after 28 days): MPO-reactive antibodies after 28 days; BUN (DR2 Tg mice; [4]): increased BUN values; albuminuria (DR2 Tg mice; [4]): developed albuminuria; hematuria (DR2 Tg mice; [4]): hematuria; glomerular disease (DR2 Tg mice; day 28): mild glomerular proliferation
NGFPVALAR (listed as Homo sapiens) [aa220-228] | A | A |  | 
NNIFMSNTYPR (listed as Homo sapiens) [aa715-725] | A | A | NNIFMSNTYPR | 
NQINALTSFVDASMV (listed as Homo sapiens) [aa328-351] | A | A |  | 
QALAQISLPR (listed as Homo sapiens) [aa692-701] | A ,R | A, R |  | 
QNQIAVDEIR (listed as Homo sapiens) [aa560-571] | A, R | A, R |  | 
RDYLPLVLGPTAMR (listed as Homo sapiens) [aa460-473] | A, R, HC | A, R, HC |  | 
RSPTLGASNR (listed as Homo sapiens) [aa184-193] | A | A | RSPTLGASNR | 
VFFASWR (listed as Homo sapiens) [aa530-536] | A, R, HC | A, R, HC | VFFASWR | 
VGPLLACI (listed as Homo sapiens) [aa657-664] | A | A |  | 
VVLEGGIDPILR (listed as Homo sapiens) [aa537-548] | A | A | VVLEGGIDPILR | 
WDGER (listed as Homo sapiens) [aa437-441] | A, R | A, R |  | 
WLPAEYEDGFSLPYG (listed as Homo sapiens) [aa198-219] | A | A |  | 
YQPMEPNPR (listed as Homo sapiens) [aa516-524] | A, R, HC | A, R, HC |  | ELISA reactivity in clinical remission (MPO-ANCA [3]; UNC and NL cohorts, remission samples): reactivity was found in remission samples in both cohorts; ELISA reactivity with Ig from active disease samples (MPO-ANCA [3]; active disease samples): reactive with Ig from active disease samples
